Measured values from patent publication US20090029949A1, “GPCR Ligands Identified by Computational Modeling” (priority 2006, published 2009).

Legend:
S1P1 mutant F5.43Y = molecular target: T1, S1P1 mutant F5.43Y (Homo sapiens, UniProt P21453, F205Y); test: [35S]GTPγS binding, S1P1 F5.43Y; assay type: biochemical; details: S1P-induced, S1P1 F5.43Y in RH7777 cells
T1 construct: expressed in transfected cells; host or cells: RH7777 (transient, pcDNA3.1)
Description: (§1) RH7777 and HEK-293 cells (ATCC, Manassas, Va.) were maintained in Dulbecco's modified minimal essential medium (DMEM) containing 10% fetal bovine serum (Hyclone, Logan, Utah). Cells (2×10^6) were transfected with 2 μg of plasmid DNA with Effectene (Qiagen, Valencia, Calif.) according to the manufacturer's instructions, for 24 h. Before ligand binding and receptor activation assays, the cells were washed twice with serum-free DMEM and serum-starved for at least 6 h.
(§2) S1P1 Receptor Activation Assays Receptor functional assays were performed in transiently transfected RH7777 cells by measuring S1P-activated [^35S]GTPγS binding as previously described (28).

S1P1 mutant L3.36G = molecular target: T2, S1P1 mutant L3.36G (Homo sapiens, UniProt P21453, L128G); test: [35S]GTPγS binding, S1P1 L3.36G; assay type: biochemical; details: S1P-induced, S1P1 L3.36G in RH7777 cells
T2 construct: expressed in transfected cells; host or cells: RH7777 (transient, pcDNA3.1)
T2 sequence (P21453 whole entry L128G): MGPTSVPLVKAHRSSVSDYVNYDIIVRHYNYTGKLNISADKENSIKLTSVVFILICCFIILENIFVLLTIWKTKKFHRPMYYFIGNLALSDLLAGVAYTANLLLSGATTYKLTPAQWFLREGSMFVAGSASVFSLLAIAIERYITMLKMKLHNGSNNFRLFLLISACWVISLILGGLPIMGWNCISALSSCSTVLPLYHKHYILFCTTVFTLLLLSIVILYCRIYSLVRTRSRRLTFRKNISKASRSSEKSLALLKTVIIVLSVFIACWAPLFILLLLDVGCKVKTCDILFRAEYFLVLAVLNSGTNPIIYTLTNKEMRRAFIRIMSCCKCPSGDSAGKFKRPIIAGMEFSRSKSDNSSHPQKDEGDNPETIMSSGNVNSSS
Description: as §1, §2

S1P1 mutant V3.40L = molecular target: T3, S1P1 mutant V3.40L (Homo sapiens, UniProt P21453, V132L); test: [35S]GTPγS binding, S1P1 V3.40L; assay type: biochemical; details: S1P-induced, S1P1 V3.40L in RH7777 cells
T3 construct: expressed in transfected cells; host or cells: RH7777 (transient, pcDNA3.1)
T3 sequence (P21453 whole entry V132L): as the sequence (P21453 whole entry L128G) above, with G128L, V132L counted along it
Description: as §1, §2

S1P1 mutant C5.44D = molecular target: T4, S1P1 mutant C5.44D (Homo sapiens, UniProt P21453, C206D); test: [35S]GTPγS binding, S1P1 C5.44D; assay type: biochemical; details: S1P-induced, S1P1 C5.44D in RH7777 cells
T4 construct: expressed in transfected cells; host or cells: RH7777 (transient, pcDNA3.1)
T4 sequence (P21453 whole entry C206D): as the sequence (P21453 whole entry L128G) above, with G128L, C206D counted along it
Description: as §1, §2

S1P1 mutant V6.37L = molecular target: T5, S1P1 mutant V6.37L (Homo sapiens, UniProt P21453, V258L); test: [35S]GTPγS binding, S1P1 V6.37L; assay type: biochemical; details: S1P-induced, S1P1 V6.37L in RH7777 cells
T5 construct: expressed in transfected cells; host or cells: RH7777
T5 sequence (P21453 whole entry V258L): as the sequence (P21453 whole entry L128G) above, with G128L, V258L counted along it
Description: as §1, §2

S1P1 mutant F6.44Y = molecular target: T6, S1P1 mutant F6.44Y (Homo sapiens, UniProt P21453, F265Y); test: [35S]GTPγS binding, S1P1 F6.44Y; assay type: biochemical; details: S1P-induced, S1P1 F6.44Y in RH7777 cells
T6 construct: expressed in transfected cells; host or cells: RH7777
T6 sequence (P21453 whole entry F265Y): as the sequence (P21453 whole entry L128G) above, with G128L, F265Y counted along it
Description: as §1, §2

S1P1 mutant F6.44G = molecular target: T7, S1P1 mutant F6.44G (Homo sapiens, UniProt P21453, F265G); test: [35S]GTPγS binding, S1P1 F6.44G; assay type: biochemical; details: S1P-induced, S1P1 F6.44G in RH7777 cells
T7 construct: expressed in transfected cells; host or cells: RH7777
T7 sequence (P21453 whole entry F265G): as the sequence (P21453 whole entry L128G) above, with G128L, F265G counted along it
Description: as §1, §2

S1P1 mutant M3.32G = molecular target: T8, S1P1 mutant M3.32G (Homo sapiens, UniProt P21453, M124G); test: [35S]GTPγS binding, S1P1 M3.32G; assay type: biochemical; details: S1P-induced, S1P1 M3.32G in RH7777 cells
T8 construct: expressed in transfected cells; host or cells: RH7777
T8 sequence (P21453 whole entry M124G): as the sequence (P21453 whole entry L128G) above, with M124G, G128L counted along it
Description: as §1, §2

S1P1 mutant V5.47L = molecular target: T9, S1P1 mutant V5.47L (Homo sapiens, UniProt P21453, V209L); test: [35S]GTPγS binding, S1P1 V5.47L; assay type: biochemical; details: S1P-induced, S1P1 V5.47L in RH7777 cells
T9 construct: expressed in transfected cells; host or cells: RH7777
T9 sequence (P21453 whole entry V209L): as the sequence (P21453 whole entry L128G) above, with G128L, V209L counted along it
Description: as §1, §2

S1P1 mutant V6.40L = molecular target: T10, S1P1 mutant V6.40L (Homo sapiens, UniProt P21453, V261L); test: [35S]GTPγS binding, S1P1 V6.40L; assay type: biochemical; details: S1P-induced, S1P1 V6.40L in RH7777 cells
T10 construct: expressed in transfected cells; host or cells: RH7777
T10 sequence (P21453 whole entry V261L): as the sequence (P21453 whole entry L128G) above, with G128L, V261L counted along it
Description: as §1, §2

S1P1 mutant L6.41E = molecular target: T11, S1P1 mutant L6.41E (Homo sapiens, UniProt P21453, L262E); test: [35S]GTPγS binding, S1P1 L6.41E; assay type: biochemical; details: S1P-induced, S1P1 L6.41E in RH7777 cells
T11 construct: expressed in transfected cells; host or cells: RH7777
T11 sequence (P21453 whole entry L262E): as the sequence (P21453 whole entry L128G) above, with G128L, L262E counted along it
Description: as §1, §2

S1P1 mutant L6.41G = molecular target: T12, S1P1 mutant L6.41G (Homo sapiens, UniProt P21453, L262G); test: [35S]GTPγS binding, S1P1 L6.41G; assay type: biochemical; details: S1P-induced, S1P1 L6.41G in RH7777 cells; mutant not detected at the cell surface
T12 construct: expressed in transfected cells; host or cells: RH7777
T12 sequence (P21453 whole entry L262G): as the sequence (P21453 whole entry L128G) above, with G128L, L262G counted along it
Description: as §1, §2

S1P1 mutant F5.48Y = molecular target: T13, S1P1 mutant F5.48Y (Homo sapiens, UniProt P21453, F210Y); test: [35S]GTPγS binding, S1P1 F5.48Y; assay type: biochemical; details: S1P-induced, S1P1 F5.48Y in RH7777 cells
T13 construct: expressed in transfected cells; host or cells: RH7777
T13 sequence (P21453 whole entry F210Y): as the sequence (P21453 whole entry L128G) above, with G128L, F210Y counted along it
Description: as §1, §2

S1P1 mutant W6.48E = molecular target: T14, S1P1 mutant W6.48E (Homo sapiens, UniProt P21453, W269E); test: [35S]GTPγS binding, S1P1 W6.48E; assay type: biochemical; details: S1P-induced, S1P1 W6.48E in RH7777 cells
T14 construct: expressed in transfected cells; host or cells: RH7777
T14 sequence (P21453 whole entry W269E): as the sequence (P21453 whole entry L128G) above, with G128L, W269E counted along it
Description: as §1, §2

WT S1P1 = WT S1P1 (Homo sapiens, UniProt P21453); test: [32P]S1P competition binding, HEK-293 cells, WT-S1P1; details: WT-S1P1, HEK-293 cells
Chain of WT S1P1 (P21453 whole entry): as the sequence (P21453 whole entry L128G) above, with G128L counted along it
Description: (§3) For the competition assays, HEK-293 cells were used. Briefly, 4×10^5 cells were plated in 24-well dishes and allowed to adhere overnight. The cells were then transfected with 0.4 μg of the cDNA using Lipofectamine 2000 (Invitrogen) and the transfection proceeded for 48 h. After washing the cells twice with ice-cold binding buffer (20 mM Tris-HCl, pH 7.4 and 150 mM NaCl), 0.1 nM [^32P]S1P and competing concentrations of cold S1P (1 nM-10 μM), resuspended in binding buffer+4% BSA, were applied to the cells and incubated on ice for 30 min. After washing the cells twice with ice-cold binding buffer+0.4% BSA, the cells were lysed with 0.5% SDS and equilibrated in scintillation fluid. The samples were measured in triplicate.

S1P1 mutant V6.40A [1] = molecular target: T15, S1P1 mutant V6.40A (Homo sapiens, UniProt P21453, V261A); test: [32P]S1P competition binding, HEK-293 cells, V6.40A; parameters: expressed in transfected cells; details: S1P1 V6.40A
T15 sequence (P21453 whole entry V261A): as the sequence (P21453 whole entry L128G) above, with G128L, V261A counted along it
Description: as §3

S1P1 mutant V6.40A [2] = molecular target: T15, S1P1 mutant V6.40A; test: [35S]GTPγS binding, S1P1 V6.40A; assay type: biochemical; parameters: expressed in transfected cells; host or cells: RH7777 (GTPγS); details: S1P-induced, S1P1 V6.40A in RH7777 cells
Description: as §1, §2

S1P1 mutant L3.36E = S1P1 mutant L3.36E (Homo sapiens, UniProt P21453, L128E); test: [35S]GTPγS binding, S1P1 L3.36E; assay type: biochemical; parameters: expressed in transfected cells; host or cells: RH7777 (transient, pcDNA3.1); details: S1P-induced, S1P1 L3.36E in RH7777 cells
Chain of S1P1 mutant L3.36E (P21453 whole entry L128E): as the sequence (P21453 whole entry L128G) above, with G128E counted along it
Description: as §1, §2

[3] = competition with cold S1P, read-out: KD + s.d.

T1 sequence (P21453 whole entry F205Y): as the sequence (P21453 whole entry L128G) above, with G128L, F205Y counted along it

Question: With CCCCCCCCCCCCC/C=C/[C@@H](O)[C@@H](N)COP(=O)(O)O [S1P, Sphingosine 1-phosphate] as the compound, how does the EC50 (S1P1 mutant F5.43Y) read?
Answer: 23 nM

Question: What about the Emax (S1P1 mutant F5.43Y; read-out: % WT Emax + s.d.) of the same compound?
Answer: 90%

Question: And the EC50 (S1P1 mutant L3.36G)?
Answer: 23 ± 8 nM

Question: And the Emax (S1P1 mutant L3.36G; read-out: % WT Emax + s.d.)?
Answer: 75%

Question: And the EC50 (S1P1 mutant V3.40L)?
Answer: 7 ± 4.5 nM

Question: And the Emax (S1P1 mutant V3.40L; read-out: % WT Emax + s.d.)?
Answer: 55%

Question: And the EC50 (S1P1 mutant C5.44D)?
Answer: 79 ± 17 nM

Question: And the Emax (S1P1 mutant C5.44D; read-out: % WT Emax + s.d.)?
Answer: 85%

Question: And the EC50 (S1P1 mutant V6.37L)?
Answer: 37.6 nM

Question: And the Emax (S1P1 mutant V6.37L; read-out: % WT Emax + s.d.)?
Answer: 247%

Question: What about the EC50 (S1P1 mutant F6.44Y) of the same compound?
Answer: 3.7 ± 3.3 nM

Question: And the Emax (S1P1 mutant F6.44Y; read-out: % WT Emax + s.d.)?
Answer: 37%

Question: What about the “% WT Emax + s.d.” value (S1P1 mutant F6.44G) of the same compound?
Answer: ∞

Question: What about the “EC50 + s.d.” value (S1P1 mutant F6.44G) of the same compound?
Answer: ∞

Question: And the EC50 (S1P1 mutant M3.32G)?
Answer: 35 ± 5 nM

Question: And the Emax (S1P1 mutant M3.32G; read-out: % WT Emax + s.d.)?
Answer: 77%

Question: What about the “% WT Emax + s.d.” value (S1P1 mutant V5.47L) of the same compound?
Answer: ∞

Question: What about the “EC50 + s.d.” value (S1P1 mutant V5.47L) of the same compound?
Answer: ∞

Question: And the “% WT Emax + s.d.” value (S1P1 mutant V6.40L)?
Answer: ∞

Question: What about the “EC50 + s.d.” value (S1P1 mutant V6.40L) of the same compound?
Answer: ∞

Question: And the EC50 (S1P1 mutant L6.41E)?
Answer: 4.1 ± 0.63 nM

Question: What about the Emax (S1P1 mutant L6.41E; read-out: % WT Emax + s.d.) of the same compound?
Answer: 59%

Question: And the “% WT Emax + s.d.” value (S1P1 mutant L6.41G)?
Answer: ∞

Question: And the “EC50 + s.d.” value (S1P1 mutant L6.41G)?
Answer: ∞

Question: And the “% WT Emax + s.d.” value (S1P1 mutant F5.48Y)?
Answer: ∞

Question: What about the “EC50 + s.d.” value (S1P1 mutant F5.48Y) of the same compound?
Answer: ∞

Question: What about the “% WT Emax + s.d.” value (S1P1 mutant W6.48E) of the same compound?
Answer: ∞

Question: And the “EC50 + s.d.” value (S1P1 mutant W6.48E)?
Answer: ∞

Question: What about the Bmax (WT S1P1) of the same compound?
Answer: 2450 fmol

Question: And the Kd (WT S1P1; [3])?
Answer: 38.7 nM

Question: What about the Bmax (S1P1 mutant V6.40A [1]) of the same compound?
Answer: 2040 fmol

Question: What about the Kd (S1P1 mutant V6.40A [1]; [3]) of the same compound?
Answer: 27.6 nM

Question: And the EC50 (S1P1 mutant V6.40A [2])?
Answer: 14.8 nM

Question: And the Emax (S1P1 mutant V6.40A [2]; read-out: % WT Emax + s.d.)?
Answer: 69%

Question: What about the EC50 (S1P1 mutant L3.36E) of the same compound?
Answer: 0.62 ± 0.46 nM

Question: And the Emax (S1P1 mutant L3.36E; read-out: % WT Emax + s.d.)?
Answer: 39 ± 2.8%
